# US7446102B2, “Antibacterial amide macrocycles IV” (priority 2004, dated 2008)
# Counter-ions that a name gives are not always drawn.
# Legend:
# Format in all cases: cell-based
# S. aureus 133 = assay: Determination of the minimum inhibitory concentration (MIC), S. aureus 133; details: Staphylococcus aureus, 133, read-out: MIC S. aureus 133
# Method: (§1) Determination of the Minimum Inhibitory Concentration (MIC)
# (§2) The minimum inhibitory concentration (MIC) is the minimum concentration of an antibiotic with which the growth of a test microbe is inhibited over 18-24 h. The inhibitor concentration can in these cases be determined by standard microbiological methods (see, for example, The National Committee for Clinical Laboratory Standards. Methods for dilution antimicrobial susceptibility tests for bacteria that grow aerobically; approved standard-fifth edition. NCCLS document M7-A5 [ISBN 1-56238-394-9]. NCCLS, 940 West Valley Road, Suite 1400, Wayne, Pa. 19087-1898 USA, 2000). The MIC of the compounds of the invention is determined in the liquid dilution test on the 96-well microtitre plate scale. The bacterial microbes are cultivated in a minimal medium (18.5 mM Na2HPO4, 5.7 mM KH2PO4, 9.3 mM NH4Cl, 2.8 mM MgSO4, 17.1 mM NaCl, 0.033 μg/ml thiamine hydrochloride, 1.2 μg/ml nicotinic acid, 0.003 μg/ml biotin, 1% glucose, 25 μg/ml of each proteinogenic amino acid with the exception of phenylalanine; [H.-P. Kroll; unpublished]) with the addition of 0.4% BH broth (test medium). In the case of Enterococcus facium L4001, heat-inactivated fetal calf serum (FCS; GibcoBRL, Germany) is added to the test medium in a final concentration of 10%. Overnight cultures of the test microbes are diluted to an OD578 of 0.001 (to 0.01 in the case of enterococci) in fresh test medium, and incubated 1:1 with dilutions of the test substances (1:2 dilution steps) in test medium (200 μl final volume). The cultures are incubated at 37° C. for 18-24 hours; enterococci in the presence of 5% CO2.
# (§3) The lowest substance concentration in each case at which no visible bacterial growth occurred any more is defined as the MIC.
# (§4) Alternative Method for Determining the Minimum Inhibitory Concentration (MIC)
# (§5) The minimum inhibitory concentration (MIC) is the minimum concentration of an antibiotic with which the growth of a test microbe is inhibited over 18-24 h. The inhibitor concentration can in these cases be determined by standard microbiological methods with modified medium in an agar dilution test (see, for example, The National Committee for Clinical Laboratory Standards. Methods for dilution antimicrobial susceptibility tests for bacteria that grow aerobically; approved standard-fifth edition. NCCLS document M7-A5 [ISBN 1-56238-394-9]. NCCLS, 940 West Valley Road, Suite 1400, Wayne, Pa. 19087-1898 USA, 2000). The bacterial microbes are cultivated on 1.5% agar plates which contain 20% defibrinated horse blood. The test microbes, which are incubated overnight on Columbia blood agar plates (Becton-Dickinson), are diluted in PBS, adjusted to a microbe count of about […] and placed dropwise (1-3 μl) on test plates. The test substances comprise different dilutions of the test substances (1:2 dilution steps). The cultures are incubated at 37° C. in the presence of 5% CO2 for 18-24 hours.
# (§6) The lowest substance concentration in each case at which no visible bacterial growth occurred any more is defined as the MIC and is reported in μg/ml.
# E. faecium L4001 = assay: Determination of the minimum inhibitory concentration (MIC), E. faecium L4001; details: Enterococcus faecium, L4001, read-out: MIC E. faecium L4001
# Method: as §1, §2, §3, §4, §5, §6
# S. aureus RN4220Bi^R = assay: MIC on biphenomycin-resistant S. aureus RN4220Bi^R; details: Staphylococcus aureus, read-out: MIC, selected colony (strain RN4220Bi^R)
# Method: The S. aureus strain RN4220Bi^R is isolated in vitro. For this purpose, 100 μl portions of an S. aureus RN4220 cell suspension (about 1.2×10^8 cfu/ml) are plated out on an antibiotics-free agar plate (18.5 mM Na2HPO4, 5.7 mM KH2PO4, 9.3 mM NH4Cl, 2.8 mM MgSO4, 17.1 mM NaCl, 0.033 μg/ml thiamine hydrochloride, 1.2 μg/ml nicotinic acid, 0.003 μg/ml biotin, 1% glucose, 25 μg/ml of each proteinogenic amino acid with the addition of 0.4% BH broth and 1% agarose) and on an agar plate containing 2 μg/ml biphenomycin B (10×MIC), and incubated at 37° C. overnight. Whereas about 1×10^7 cells grow on the antibiotics-free plate, about 100 colonies grow on the antibiotics-containing plate, corresponding to a resistance rate of 1×10^−5. Some of the colonies grown on the antibiotics-containing plate are tested for the biphenomycin B MIC. One colony with an MIC of >50 μM is selected for further use, and the strain is referred to as RN4220Bi^R.
smiles,measurement,setting,value
"NC[C@H](O)C[C@@H]1NC(=O)[C@@H](N)Cc2cc(ccc2O)-c2ccc(O)c(c2)C[C@@H](C(=O)O)NC1=O [Example 20A, 14(S)-Amino-11(S)-(3-amino-2(R)-hydroxypropyl)-5,17-dihydroxy-10,13-dioxo-9,12-diazatricyclo[14.3.1.1^2,6]henicosa-1(19),2,4,6(21),16(20),17-hexaene-8(S)-carboxylic acid dihydrochloride, reference compound]",MIC,S. aureus 133,< 0.03 µg/mL
same,MIC,E. faecium L4001,0.5 µg/mL
same,MIC,S. aureus RN4220Bi^R,> 50 µM
